Laboratory results reported in patent US7732398B2, “Medicinal uses of mu-opioid receptor agonists” (Cornell Research Foundation, Inc., priority 2000, dated 2010).
Several values for one entry are separate records, joined by “and”; a condition that tells them apart may be missing. Equal entries are not always repeated. Marks after values point to notes of the source that are not given here.

What was measured:
[1] = tested on: Male Sprague-Dawley rats; assay: Respiratory effects: minute ventilation (VE) under 5% CO2 challenge, whole body plethysmography; format: in vivo, rat; conditions: for minimum VE compared with saline group: intrathecal
Description: The effects of each drug on minute ventilation (VE) under 5% CO2 challenge were evaluated using whole body plethysmography (Tatsumi et al., 1991). An unrestrained rat was placed in a 3-liter whole-body plethysmograph chamber. After a 15-min acclimation period, a gas mixture of 5% CO2 and 21% O2 in N2 (100% humidified) was supplied into and out of the chamber at a rate of 1000 ml/min, and the animal was allowed to breathe the gas mixture for 5 minutes. After a steady-state ventilatory condition had been reached, with the animal awake and quiet, the inlet and outlet of the chamber were closed and the pressure changes in the box (due to the warming and wetting of the gas inspired by the rat and the cooling and drying of the expired gas) were recorded using a high-gain differential pressure transducer. A calibration volume of 0.2 ml of air was regularly introduced into the chamber during the recordings. The recordings were made for 20 to 30 seconds. Tidal volumes were calculated from the pressure changes using the equation derived by Drorbaugh and Fenn (1955). Respiratory frequencies were determined from the number of respiratory cycles in the recordings and VE values were calculated (tidal volume×frequency).
Rats were randomly assigned to one of 7 groups. The number of rats in each group was 6 to 10. The animals of each group were given 3 times (lower dose) or 30 times (higher dose) the ED50 value (antinociceptive) of MOR, DALDA or [Dmt^1]DALDA, or saline by direct percutaneous intrathecal injection. VE under 5% CO2 challenge was determined prior to and every hour up to 10 hours after the administration of the drug. VE values were expressed as a percentage of the baseline VE value obtained prior to the administration of any drug. The smallest VE value obtained after the administration of a drug (minimum V E) was determined for each animal. Mean values of the minimum V E for animals of each group were compared using the one-way analysis of variance followed by the Dunnett's test. For each animal, respiratory depression was defined as a minimum VE value that is below two standard deviations of the mean (mean−2×SD) of the saline group.
A minimum VE value (see Materials and Methods) less than the mean−(2×S.D.) of the minimum VE value of the saline group was considered a “low minimum VE”.

[2] = tested on: Male Sprague-Dawley rats; assay: Behavioral effects after intrathecal administration; format: in vivo, rat; conditions: for rigidity of the caudal part of the body: higher dose (30 times ED50)
Excerpt: However, they retained their righting reflex.

[3] = tested on: Male Sprague-Dawley rats; assay: Rat tail-flick test, antinociceptive effects after intrathecal administration; format: in vivo; conditions: for time for which tail-flick latencies were significantly greater than baseline: 3 times ED50, direct percutaneous intrathecal injection, n=8; for Response Latencies: 3 times ED50 intrathecal, at peak analgesia; for Potency Ratios: antinociceptive potency relative to intrathecal morphine (=1); for EDT50: cumulative dose-response, quantal tail-flick test, n=10; for Baseline Latencies: tail-flick latency prior to the administration of any drug, n=4
Description: Male Sprague-Dawley rats (300-350 g) were used.
Under light halothane anesthesia a needle connected to a Hamilton syringe was inserted percutaneously between spinal processes of the third and fourth lumbar vertebrae into the intrathecal space. A quick flick of the tail was observed when the tip of the needle entered the intrathecal space and was used as an indicator of successful puncture (Mestre et al., 1994). Drugs were delivered in a volume of 5 μl.
Intrathecal catheterization was performed at least two days prior to the experiment as previously described (Shimoyama et al., 1996). Briefly, under halothane anesthesia, a PE-10 tube was inserted through a small hole made in the atlanto-occipital membrane and threaded 8.5 cm down the intrathecal space to the lumbosacral level of the spinal cord. Drugs were delivered via the catheter in a volume of 5 μl, followed by 10 μl saline to flush the catheter.
To assess the antinociceptive effects of the opioids, the tail-flick test was used. Radiant heat was applied to the tail at 5-8 cm from the tip using a tail-flick apparatus (IITC, Woodland Hills, Calif.). The time from the onset of the heat to the withdrawal of the tail (tail-flick latency) was measured. The intensity of the radiant heat was adjusted so that baseline latencies would fall between 2.5 and 3.5 seconds. To avoid tissue damage the heat stimulus was discontinued after seven seconds. A baseline latency was obtained for each animal prior to the administration of any drug. Subsequent response latencies were determined at designated time points. Analgesic testing was performed by a blinded investigator.
Cumulative dose-response studies were performed for each drug using the tail-flick test (Shimoyama et al., 1996), (Shimoyama et al., 1997). Each drug was tested in a group of ten rats. After measuring the baseline latencies, increasing doses of each drug were administered via an intrathecal catheter until each animal in the group became an analgesic responder. An analgesic responder was defined as one whose response tail-flick latency was two or more times the value of the baseline latency. The response latency after each dosing was determined at peak analgesia, which was 15, 30 and 45 min after the administration of the MOR, DALDA and [Dmt^1]DALDA, respectively (based on preliminary studies). Any subsequent dosing was performed immediately after the determination of response latency. The percentage of analgesic responders in the group of rats for each cumulative dose was calculated, and a cumulative dose-response curve was constructed. The dose-response data were analyzed by the BLISS-21 computer program. This program maximized the log-likelihood function to fit a parallel set of gaussian normal sigmoid curves to the dose-response data and provides ED50 values, 95% confidence interval (CI) and relative potency estimates (Umans and Inturrisi, 1981).
The effect of naloxone on the antinociceptive effects of intrathecal MOR, DALDA and [Dmt^1]DALDA was examined. An equipotent dose (3 times the ED50 value determined in Study 1) of MOR, DALDA or [Dmt^1]DALDA was given via an intrathecal catheter. Tail-flick latencies were measured prior to the administration of any drug and at the time of peak analgesia for each compound (at 15, 30 and 45 minutes after administration, for MOR, DALDA and [Dmt^1]DALDA, respectively). Naloxone hydrochloride at a dose of 82.5 nmol or saline was administered via the intrathecal catheter 10 minutes prior to the second tail-flick testing. Four rats were tested for each combination of drugs. Data were analyzed using the paired t-test.
A dose 3 times the ED50 value of MOR, DALDA, or [Dmt^1]DALDA was administered intrathecally. Tail-flick latencies were measured prior to the administration of any drug (=baseline latency) and at the time of peak analgesia (=response latency). […]

[4] = high dose (30 times antinociceptive ED50)
[5] = higher dose, 30 times ED50 (Morphine 100 nmol of 10 rats, DALDA 7 nmol of 8, [Dmt1]DALDA 34 pmol of 7)
[6] = low dose (3 times antinociceptive ED50)
[7] = lower dose, 3 times ED50 (Morphine 10 nmol, DALDA 0.7 nmol, [Dmt1]DALDA 3.4 pmol), 6 rats per group
[8] = naloxone hydrochloride 82.5 nmol intrathecal 10 min prior to measurement

NCCCC[C@H](NC(=O)[C@H](Cc1ccccc1)NC(=O)[C@@H](CCCN=C(N)N)NC(=O)[C@@H](N)Cc1ccc(O)cc1)C(N)=O [DALDA, H-Tyr-D-Arg-Phe-Lys-NH2]
minimum VE ([1]; four rats of the higher dose DALDA group): less than 60 % of baseline | minimum VE compared with saline group [1, 4]: significantly lower minimum VE | Time of Occurrence of Low Minimum VE ([1]; higher dose, 30 times ED50): 3-5 h after administration | No. of Rats with Low Minimum VE [1, 5]: 4 | minimum VE compared with saline group [1, 6]: significantly lower minimum VE | Time of Occurrence of Low Minimum VE ([1]; lower dose, 3 times ED50): 3-5 h after administration | No. of Rats with Low Minimum VE [1, 7]: 4 | rigidity of the caudal part of the body [2]: Rigidity of the caudal part of the body was observed in each animal | sedative effects ([2]; higher dose, coincided with respiratory depression): showed sedative effects | time for which tail-flick latencies were significantly greater than baseline [3]: 7 h | Response Latencies [3, 8]: not different from baseline values | Response Latencies ([3]; saline 10 min prior to measurement, cut-off 7 s, listed as DALDA + saline): ≥ 7 (cut-off latency)* s | Potency Ratios [3]: 14 and 14.1 | EDT50 ([3]; intrathecal): 237 pmol | Baseline Latencies [3]: 2.63 ± 0.15 s

CN1CC[C@]23c4c5ccc(O)c4O[C@H]2[C@@H](O)C=C[C@H]3[C@H]1C5 [Morphine, morphine, reference compound]
minimum VE compared with saline group [1, 4]: significantly lower | Time of Occurrence of Low Minimum VE ([1]; higher dose, 30 times ED50): 3-5 h after administration | No. of Rats with Low Minimum VE [1, 5]: 4 | Time of Occurrence of Low Minimum VE ([1]; lower dose, 3 times ED50): 4 h after administration | No. of Rats with Low Minimum VE [1, 7]: 1 | No. of Rats with Low Minimum VE ([1]; lower dose, 3 times ED50 (Morphine 10 nmol, DALDA 0.7 nmol, [Dmt1]DALDA 3.4 pmol), 6 rats per group, listed as MOR): one | rigidity of the caudal part of the body [2]: Rigidity of the caudal part of the body was observed in each animal | time for which tail-flick latencies were significantly greater than baseline [3]: 3 h | Response Latencies [3, 8]: not different from baseline values | Response Latencies ([3]; saline 10 min prior to measurement, cut-off 7 s, listed as MOR + saline): ≥ 7 (cut-off latency)* s | EDT50 ([3]; intrathecal): 3330 pmol | Baseline Latencies [3]: 2.78 ± 0.50 s

Cc1cc(O)cc(C)c1C[C@H](N)C(=O)N[C@H](CCCNC(=N)N)C(=O)N[C@@H](Cc1ccccc1)C(=O)N[C@@H](CCCCN)C(N)=O [[Dmt^1]DALDA, 2′,6′-dimethyl-Tyr-D-Arg-Phe-Lys-NH2]
minimum VE compared with saline group [1, 4]: not different | Time of Occurrence of Low Minimum VE ([1]; higher dose, 30 times ED50): 3 h after administration | minimum VE compared with saline group [1, 6]: not different | rigidity of the caudal part of the body [2]: Rigidity of the caudal part of the body was observed in each animal | time for which tail-flick latencies were significantly greater than baseline [3]: 13 h | Response Latencies [3, 8]: not different from baseline values | Response Latencies ([3]; saline 10 min prior to measurement, cut-off 7 s, listed as [Dmt^1]DALDA + saline): ≥ 7 (cut-off latency)* s | potency relative to DALDA in the rat tail flick test ([3]; after intrathecal administration): 200 fold | Potency Ratios [3]: 3000 and 3160 | EDT50 ([3]; intrathecal): 1.06 pmol | effect of added yohimbine (100 μg) on the antinociceptive effect ([3]; intrathecal, [Dmt1]DALDA 1.1 pmol or DALDA 240 pmol with yohimbine): significantly attenuated | Baseline Latencies [3]: 2.83 ± 0.17 s
